Activity calls are given as the source filed them. The rule behind the calls is not given here.
What was measured:
AGS = test: Cytotoxicity against human AGS cells assessed as growth inhibition after 72 hrs by MTT assay
HeLa = test: Cytotoxicity against human HeLa cells assessed as growth inhibition after 72 hrs by MTT assay
[1] = Cytotoxicity against human HCC827 cells assessed as growth inhibition after 72 hrs by MTT assay; settings: HCC827, 72 h
HT-29 = test: Cytotoxicity against human HT-29 cells assessed as growth inhibition after 72 hrs by MTT assay; settings: HT-29, 72 h
A549 = test: Cytotoxicity against human A549 cells assessed as growth inhibition after 72 hrs by MTT assay; settings: A549, 72 h
[2] = Cytotoxicity against human MIAPaCa2 cells assessed as growth inhibition after 72 hrs by MTT assay; settings: MIA PaCa-2, 72 h
HepG2 = test: Cytotoxicity against human HepG2 cells assessed as growth inhibition after 72 hrs by MTT assay; settings: HepG2, 72 h
[3] = Solubility of compound in water; type: physicochemical; settings: buffer
HCC827 = test: Antimigratory activity against human HCC827 cells at 2.5 to 10 uM after 24 hrs by crystal violet staining based transwell chamber assay; type: functional, cell-based
[4] = target: Hepatocyte growth factor receptor (Homo sapiens, UniProt P08581); test: Inhibition of c-MET (unknown origin) by caliper mobility shift assay
Sequence of Hepatocyte growth factor receptor (P08581 whole entry): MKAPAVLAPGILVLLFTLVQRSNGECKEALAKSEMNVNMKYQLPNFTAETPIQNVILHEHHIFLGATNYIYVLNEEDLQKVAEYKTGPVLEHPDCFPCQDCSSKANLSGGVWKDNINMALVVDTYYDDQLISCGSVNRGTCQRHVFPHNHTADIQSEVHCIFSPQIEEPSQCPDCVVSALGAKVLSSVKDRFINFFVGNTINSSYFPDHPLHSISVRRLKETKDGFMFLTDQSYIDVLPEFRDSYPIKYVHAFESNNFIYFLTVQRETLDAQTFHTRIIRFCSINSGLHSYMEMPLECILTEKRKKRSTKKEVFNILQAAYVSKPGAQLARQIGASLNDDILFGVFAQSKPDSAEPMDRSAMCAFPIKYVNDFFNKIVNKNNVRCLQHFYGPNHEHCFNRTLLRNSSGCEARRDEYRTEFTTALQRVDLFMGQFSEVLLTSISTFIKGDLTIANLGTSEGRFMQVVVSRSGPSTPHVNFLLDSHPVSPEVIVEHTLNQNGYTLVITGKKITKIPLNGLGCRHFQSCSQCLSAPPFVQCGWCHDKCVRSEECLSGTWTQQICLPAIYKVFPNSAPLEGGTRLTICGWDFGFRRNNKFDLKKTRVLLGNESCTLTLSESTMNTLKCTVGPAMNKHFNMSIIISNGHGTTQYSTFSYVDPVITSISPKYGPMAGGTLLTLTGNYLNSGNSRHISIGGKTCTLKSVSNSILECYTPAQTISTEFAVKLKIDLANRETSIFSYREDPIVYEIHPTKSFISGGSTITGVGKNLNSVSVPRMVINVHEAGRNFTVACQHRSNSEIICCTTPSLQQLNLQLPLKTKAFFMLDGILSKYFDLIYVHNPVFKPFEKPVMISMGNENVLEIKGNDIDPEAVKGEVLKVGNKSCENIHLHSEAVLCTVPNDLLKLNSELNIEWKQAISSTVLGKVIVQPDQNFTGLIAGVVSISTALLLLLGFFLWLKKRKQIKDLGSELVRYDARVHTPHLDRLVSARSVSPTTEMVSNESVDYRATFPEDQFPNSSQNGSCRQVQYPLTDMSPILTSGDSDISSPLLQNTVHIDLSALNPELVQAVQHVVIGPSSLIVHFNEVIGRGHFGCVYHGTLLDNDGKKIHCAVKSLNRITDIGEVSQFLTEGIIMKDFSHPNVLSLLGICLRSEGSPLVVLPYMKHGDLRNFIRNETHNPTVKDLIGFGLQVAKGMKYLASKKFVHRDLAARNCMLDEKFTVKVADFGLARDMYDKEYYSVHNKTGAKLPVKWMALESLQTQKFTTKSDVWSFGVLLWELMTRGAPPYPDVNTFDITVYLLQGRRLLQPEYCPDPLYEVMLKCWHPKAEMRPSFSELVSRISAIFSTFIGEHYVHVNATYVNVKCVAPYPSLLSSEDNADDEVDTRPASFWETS

With `CC(=O)Oc1ccc(C(=O)C2=C(O)[C@]3(CC=C(C)C)C[C@@H](C/C=C(\C)CCC=C(C)C)[C@](C)(CCC=C(C)C)[C@](CC=C(C)C)(C2=O)C3=O)cc1OC(C)=O` the IC50 (AGS) was 15.7 µM, the IC50 (HeLa) was 13.3 µM and the IC50 [1] was > 20 µM. For the same compound, the IC50 (HT-29) was 12.2 µM, the IC50 (A549) was 16.6 µM and the IC50 [2] was > 20 µM. For the same compound, the IC50 (HepG2) was > 20 µM.
In the case of `CC(C)=CCC/C(C)=C/C[C@@H]1C[C@]2(CC=C(C)C)C(=O)[C@@](CC=C(C)C)(C(=O)C(C(=O)c3ccc(OCC(=O)O)c(OCC(=O)O)c3)=C2O)[C@@]1(C)CCC=C(C)C`, the IC50 (AGS) is reported as > 20 µM, the IC50 (HeLa) is reported as > 20 µM and the IC50 [1] is reported as > 20 µM. The IC50 (HT-29) was > 20 µM, the solubility [3] was “soluble” and the IC50 (A549) was > 20 µM. The IC50 [2] was > 20 µM and the IC50 (HepG2) was > 20 µM.
Compound `CC(C)=CCC/C(C)=C/C[C@@H]1C[C@]2(CC=C(C)C)C(=O)[C@@](CC=C(C)C)(C(=O)C(C(=O)c3ccc(O)c(OC(=O)CCCC[C@@H]4SCC5NC(=O)NC54)c3)=C2O)[C@@]1(C)CCC=C(C)C` (some centres not stated) has an IC50 (AGS) of 12.2 µM, an IC50 (HeLa) of 12.7 µM and an IC50 [1] of 12.1 µM. For the same compound, the IC50 (HT-29) was 18.2 µM, the IC50 (A549) was 11.3 µM and the IC50 [2] was 11.7 µM. The IC50 (HepG2) was 14.6 µM.
In the case of `CC(=O)Oc1cc(C(=O)C2=C(O)[C@]3(CC=C(C)C)C[C@@H](C/C=C(\C)CCC=C(C)C)[C@](C)(CCC=C(C)C)[C@](CC=C(C)C)(C2=O)C3=O)ccc1O`, the IC50 (AGS) is reported as 8.09 µM, the IC50 (HeLa) is reported as 8.97 µM and the IC50 [1] is reported as > 20 µM. The IC50 (HT-29) was 10.2 µM, the IC50 (A549) was 7.66 µM and the IC50 [2] was 15.4 µM. The IC50 (HepG2) was > 20 µM.
In the case of `CC(C)=CCC/C(C)=C/C[C@@H]1C[C@@]2(CC=C(C)C)C(=O)C3=C(OC4C=C(O)C(=O)C=C4C3=O)[C@](CC=C(C)C)(C2=O)[C@@]1(C)CCC=C(C)C` (some centres not stated), the IC50 (AGS) is reported as 7.72 µM, the IC50 (HeLa) is reported as 6.82 µM and the IC50 [1] is reported as 4.56 µM. For the same compound, the IC50 (HT-29) was 9.22 µM, the Activity (HCC827) was “Active” and the IC50 (A549) was 9.84 µM. For the same compound, the IC50 [2] was 2.78 µM and the IC50 (HepG2) was 3.47 µM.
With `C[C@@H](Oc1cc(-c2cnn(C3CCNCC3)c2)cnc1N)c1c(Cl)ccc(F)c1Cl` [CRIZOTINIB] the IC50 [1] was 7.25 µM, the IC50 [2] was 7.16 µM and the IC50 (HepG2) was 3.7 µM.
With `CC(C)=CCC/C(C)=C/C[C@@H]1C[C@]2(CC=C(C)C)C(=O)[C@@](CC=C(C)C)(C(=O)C3=C2OC2C=C(O)C(=O)C=C2C3=O)[C@@]1(C)CCC=C(C)C` (some centres not stated) the IC50 (AGS) was 7.84 µM, the IC50 (HeLa) was 10.3 µM and the IC50 [1] was > 20 µM. For the same compound, the IC50 (HT-29) was 16.9 µM, the Activity (HCC827) was “Active” and the IC50 (A549) was 13.1 µM. For the same compound, the IC50 [2] was 9.88 µM and the IC50 (HepG2) was 14.3 µM.
For `CC(C)=CCC/C(C)=C/C[C@@H]1C[C@]2(CC=C(C)C)C(=O)[C@@](CC=C(C)C)(C(=O)C(Cc3ccc(O)c(O)c3)=C2O)[C@@]1(C)CCC=C(C)C`, the IC50 (AGS) was > 20 µM, the IC50 (HeLa) was > 20 µM and the IC50 [1] was > 20 µM. The IC50 (HT-29) was > 20 µM, the IC50 [4] was > 20 µM and the IC50 (A549) was > 20 µM. The IC50 [2] was > 20 µM and the IC50 (HepG2) was > 20 µM.
For `COC(=O)COc1ccc(C(=O)C2=C(O)[C@]3(CC=C(C)C)C[C@@H](C/C=C(\C)CCC=C(C)C)[C@](C)(CCC=C(C)C)[C@](CC=C(C)C)(C2=O)C3=O)cc1OCC(=O)O`, the IC50 (AGS) was > 20 µM, the IC50 (HeLa) was > 20 µM and the IC50 [1] was > 20 µM. For the same compound, the IC50 (HT-29) was > 20 µM, the solubility [3] was “soluble” and the IC50 (A549) was > 20 µM. For the same compound, the IC50 [2] was > 20 µM and the IC50 (HepG2) was > 20 µM.
For `CC(C)=CCC/C(C)=C/C[C@@H]1C[C@]2(CC=C(C)C)C(=O)[C@@](CC=C(C)C)(C(=O)C(OC(=O)c3ccc(O)c(O)c3)=C2O)[C@@]1(C)CCC=C(C)C`, the IC50 (AGS) was 10.2 µM, the IC50 (HeLa) was 15.1 µM and the IC50 [1] was > 20 µM. For the same compound, the IC50 (HT-29) was 16.3 µM, the IC50 (A549) was 13.1 µM and the IC50 [2] was > 20 µM. The IC50 (HepG2) was > 20 µM.
For `COC(=O)COc1cc(C(=O)C2=C(O)[C@]3(CC=C(C)C)C[C@@H](C/C=C(\C)CCC=C(C)C)[C@](C)(CCC=C(C)C)[C@](CC=C(C)C)(C2=O)C3=O)ccc1OCC(=O)O`, the IC50 (AGS) was > 20 µM, the IC50 (HeLa) was > 20 µM and the IC50 [1] was > 20 µM. For the same compound, the IC50 (HT-29) was > 20 µM, the solubility [3] was “soluble” and the IC50 (A549) was > 20 µM. The IC50 [2] was > 20 µM and the IC50 (HepG2) was > 20 µM.
In the case of `CC(C)=CCC/C(C)=C/C[C@@H]1C[C@]2(CC=C(C)C)C(=O)[C@@](CC=C(C)C)(C(=O)C(C(=O)c3ccc(O)c(O)c3)=C2O)[C@@]1(C)CCC=C(C)C` [OBLONGIFOLIN C], the IC50 (AGS) is reported as 4.58 µM, the IC50 (HeLa) is reported as 5.83 µM and the IC50 [1] is reported as 9.2 µM. For the same compound, the IC50 (HT-29) was 6.74 µM, the IC50 [4] was 7.77 µM and the IC50 (A549) was 4.29 µM. The IC50 [2] was 4.46 µM and the IC50 (HepG2) was 13 µM.

Reference: ChEMBL document CHEMBL3826938, “Synthesis and biological evaluation of Oblongifolin C derivatives as c-Met inhibitors” (Bioorg Med Chem, 2016)
